Measurements: patent US11814367B2, “Inhibitors of glycogen synthase 1 (GYS1) and methods of use thereof” (Maze Therapeutics, Inc., priority 2021, dated 2023)

Tests used:
[1] = target: hGYS2 enzyme (recombinant hGYS2/GN1 protein) (Homo sapiens (Human), UniProt P54840); assay: GYS2 coupled enzyme assay (PK/LDH); type: biochemical; details: geometric mean of at least 2 assay runs on separate days, read-out: Avg_IC50
How it was run: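 Recombinant hGYS2/GN1 (200 nM) with 2 mM UDP-glucose, 0.2% rabbit liver glycogen, 2 mM glucose-6-phosphate; UDP coupled via PK/LDH (2 mM PEP, 0.6 mM NADH). Buffer 50 mM Tris pH 7.5, 2 mM MgCl2, 100 mM KCl, 2.5% DMSO. A340 slope over 10 min; IC50 from Hill fit of duplicates.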

[2] = target: hGYS1 enzyme (recombinant hGYS1/GN1 protein) (Homo sapiens (Human), UniProt P13807); assay: GYS1 coupled enzyme assay (PK/LDH); type: biochemical; details: hGYS1/GN1 50 nM, UDP-Glucose 0.8 mM, G6P 1 mM; geometric mean of at least 2 runs
hGYS1 enzyme (recombinant hGYS1/GN1 protein), sequence (P13807 whole entry): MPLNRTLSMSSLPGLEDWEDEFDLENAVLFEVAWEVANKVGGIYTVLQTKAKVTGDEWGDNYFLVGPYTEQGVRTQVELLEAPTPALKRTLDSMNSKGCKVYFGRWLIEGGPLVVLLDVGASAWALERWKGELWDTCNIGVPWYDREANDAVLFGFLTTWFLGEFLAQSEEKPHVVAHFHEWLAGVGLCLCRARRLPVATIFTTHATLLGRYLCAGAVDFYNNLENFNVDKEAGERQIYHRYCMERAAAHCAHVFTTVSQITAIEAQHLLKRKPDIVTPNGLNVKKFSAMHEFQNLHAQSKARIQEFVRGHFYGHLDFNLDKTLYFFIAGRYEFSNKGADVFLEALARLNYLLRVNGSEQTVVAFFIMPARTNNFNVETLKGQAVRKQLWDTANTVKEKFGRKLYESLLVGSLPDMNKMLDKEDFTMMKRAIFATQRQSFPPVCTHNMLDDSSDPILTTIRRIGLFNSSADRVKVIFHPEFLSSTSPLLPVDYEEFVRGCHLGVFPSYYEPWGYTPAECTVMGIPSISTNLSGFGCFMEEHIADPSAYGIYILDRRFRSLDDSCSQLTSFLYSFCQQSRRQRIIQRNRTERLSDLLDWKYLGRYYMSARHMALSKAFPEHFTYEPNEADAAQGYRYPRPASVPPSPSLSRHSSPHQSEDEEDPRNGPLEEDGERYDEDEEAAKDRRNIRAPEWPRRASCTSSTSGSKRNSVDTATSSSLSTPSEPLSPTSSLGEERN
hGYS1 enzyme (recombinant hGYS1/GN1 protein), sequence (P46976 whole entry partner): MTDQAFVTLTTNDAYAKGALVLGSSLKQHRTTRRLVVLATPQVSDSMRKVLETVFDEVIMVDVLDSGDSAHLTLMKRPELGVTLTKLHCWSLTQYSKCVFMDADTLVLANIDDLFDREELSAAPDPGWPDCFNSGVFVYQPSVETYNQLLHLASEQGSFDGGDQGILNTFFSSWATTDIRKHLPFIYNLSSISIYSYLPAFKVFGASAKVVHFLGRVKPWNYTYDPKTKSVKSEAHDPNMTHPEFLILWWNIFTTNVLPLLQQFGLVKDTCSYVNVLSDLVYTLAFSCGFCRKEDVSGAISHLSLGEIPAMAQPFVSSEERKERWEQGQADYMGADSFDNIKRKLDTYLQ

hGYS2 enzyme (recombinant hGYS2/GN1 protein), sequence (P54840 whole entry): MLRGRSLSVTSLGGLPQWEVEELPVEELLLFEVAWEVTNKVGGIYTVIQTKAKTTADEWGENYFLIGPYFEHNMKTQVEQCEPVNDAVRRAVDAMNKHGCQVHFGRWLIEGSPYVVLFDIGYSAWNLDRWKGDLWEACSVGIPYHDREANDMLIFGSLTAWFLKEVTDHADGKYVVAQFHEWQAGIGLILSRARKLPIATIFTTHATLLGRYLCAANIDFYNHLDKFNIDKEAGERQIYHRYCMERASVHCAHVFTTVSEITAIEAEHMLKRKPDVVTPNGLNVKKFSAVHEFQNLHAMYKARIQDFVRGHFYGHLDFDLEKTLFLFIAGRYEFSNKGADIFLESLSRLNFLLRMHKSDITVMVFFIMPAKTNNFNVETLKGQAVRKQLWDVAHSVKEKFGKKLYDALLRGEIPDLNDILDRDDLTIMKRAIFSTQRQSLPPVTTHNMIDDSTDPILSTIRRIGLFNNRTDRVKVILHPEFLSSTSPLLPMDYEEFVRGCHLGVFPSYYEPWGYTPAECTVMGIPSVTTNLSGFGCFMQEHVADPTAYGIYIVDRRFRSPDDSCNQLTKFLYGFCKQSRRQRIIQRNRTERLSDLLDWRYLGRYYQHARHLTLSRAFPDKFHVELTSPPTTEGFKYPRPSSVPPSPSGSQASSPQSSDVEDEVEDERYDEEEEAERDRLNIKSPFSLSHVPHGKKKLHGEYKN
hGYS2 enzyme (recombinant hGYS2/GN1 protein), sequence (P46976 whole entry partner): as the sequence (P46976 whole entry partner) above

| IC50 [1] [nM] | IC50 [2] [nM] | Structure (SMILES) |
| --- | --- | --- |
| > 100000 | 20 | CC(C)c1ccc([C@@H](NC(=O)[C@@H]2C[C@@H](F)CN2C(=O)Cc2ccn(C)n2)c2ccccc2)cc1F [Compound 350, (2S,4R)-4-fluoro-N-[(S)-[3-fluoro-4-(propan-2-yl)phenyl](phenyl)methyl]-[2-(1-methyl-1H-pyrazol-3-yl)acetyl]pyrrolidine-2-carboxamide] |
| > 100000 | 20 | CC(C)c1ccc([C@@H](NC(=O)[C@@H]2C[C@@H](F)CN2C(=O)CNC(=O)N2CCN(C(=O)OC(C)(C)C)CC2)c2ccccc2)cc1F [Compound 366, tert-butyl 4-({2-[(2S,4R)-4-fluoro-2-{[(S)-[3-fluoro-4-(propan-2-yl)phenyl](phenyl)methyl]carbamoyl}pyrrolidin-1-yl]-2-oxoethyl}carbamoyl) piperazine-1-carboxylate] |
| > 100000 | 8 | CC(C)c1ccc([C@@H](NC(=O)[C@@H]2C[C@@H](F)CN2C(=O)Cn2ncc(N3CCNCC3)n2)c2ccccc2)cc1F [Compound 376, (2S,4R)-4-fluoro-N-[(S)-[3-fluoro-4-(propan-2-yl)phenyl](phenyl)methyl]-1-{2-[4-(piperazin-1-yl)-2H-1,2,3-triazol-2-yl]acetyl}pyrrolidine-2-carboxamide] |
| > 100000 | 5 | Cc1cn(CC(=O)N2C[C@H](F)C[C@H]2C(=O)N[C@@H](c2ccccc2)c2ccc(C(C)C)c(F)n2)c(=O)n(C)c1=O [Compound 386, (2S,4R)-1-[2-(3,5-dimethyl-2,4-dioxo-1,2,3,4-tetrahydropyrimidin-1-yl)acetyl]-4-fluoro-N-[(S)-[6-fluoro-5-(propan-2-yl)pyridin-2-yl](phenyl)methyl] pyrrolidine-2-carboxamide] |
| > 100000 | 5 | Cc1cn(CC(=O)N2C[C@H](F)C[C@H]2C(=O)N[C@@H](c2ccccc2)c2ccc(C(C)C)c(F)n2)c(=O)[nH]c1=O [Compound 388, (2S,4R)-4-fluoro-N-[(S)-[6-fluoro-5-(propan-2-yl)pyridin-2-yl](phenyl)methyl]-1-[2-(5-methyl-2,4-dioxo-1,2,3,4-tetrahydropyrimidin-1-yl)acetyl]pyrrolidine-2-carboxamide] |
| > 100000 | 697 | CC(=O)N1C[C@H](F)C[C@H]1C(=O)N[C@@H](c1ccccc1)c1ccc(C2CC2)c(F)c1 [Compound 418, (2S,4R)-1-acetyl-N-[(S)-(4-cyclopropyl-3-fluorophenyl)(phenyl)methyl]-4-fluoropyrrolidine-2-carboxamide] |
| > 100000 | 294 | CC(=O)NCC(=O)N1CCC[C@H]1C(=O)N[C@@H](c1ccccc1)c1ccc(C2CC2)c(F)c1 [Compound 421, (2S)-N-[(S)-(4-cyclopropyl-3-fluorophenyl)(phenyl)methyl]-1-(2-acetamidoacetyl) pyrrolidine-2-carboxamide] |
| > 100000 | 166 | O=C(N[C@@H](c1ccccc1)c1ccc(C2CC2)c(F)c1)[C@@H]1C[C@@H](F)CN1C(=O)CCc1ncco1 [Compound 422, (2S,4R)-N-[(S)-(4-cyclopropyl-3-fluorophenyl)(phenyl)methyl]-4-fluoro-1-[3-(1,3-oxazol-2-yl)propanoyl]pyrrolidine-2-carboxamide] |
| > 100000 | 287 | O=C(N[C@@H](c1ccccc1)c1ccc(C2CC2)c(F)c1)[C@@H]1C[C@@H](F)CN1C(=O)CN1CCOC1=O [Compound 424, (2S,4R)-N-[(S)-(4-cyclopropyl-3-fluorophenyl)(phenyl)methyl]-4-fluoro-1-[2-(2-oxo-1,3-oxazolidin-3-yl)acetyl] pyrrolidine-2-carboxamide] |
| > 100000 | 363 | O=C(N[C@@H](c1ccccc1)c1ccc(C2CC2)c(F)c1)[C@@H]1C[C@@H](F)CN1C(=O)Cc1nnco1 [Compound 426, (2S,4R)-N-[(S)-(4-cyclopropyl-3-fluorophenyl)(phenyl)methyl]-4-fluoro-1-[2-(1,3,4-oxadiazol-2-yl)acetyl]pyrrolidine-2-carboxamide] |
| > 100000 | 374 | O=C(N[C@@H](c1ccccc1)c1ccc(C2CC2)c(F)c1)[C@@H]1C[C@@H](F)CN1C(=O)Cc1nnc(C(F)(F)F)o1 [Compound 428, (2S,4R)-N-[(S)-(4-cyclopropyl-3-fluorophenyl)(phenyl)methyl]-4-fluoro-1-{2-[5-(trifluoromethyl)-1,3,4-oxadiazol-2-yl]acetyl}pyrrolidine-2-carboxamide] |
| > 100000 | 191 | O=C(N[C@@H](c1ccccc1)c1ccc(C2CC2)c(F)c1)[C@@H]1C[C@@H](F)CN1C(=O)Cc1nnn[nH]1 [Compound 430, (2S,4R)-N-[(S)-(4-cyclopropyl-3-fluorophenyl)(phenyl)methyl]-4-fluoro-1-[2-(1H-1,2,3,4-tetrazol-5-yl)acetyl]pyrrolidine-2-carboxamide] |
| > 100000 | 185 | Cc1nnnn1CC(=O)N1C[C@H](F)C[C@H]1C(=O)N[C@@H](c1ccccc1)c1ccc(C2CC2)c(F)c1 [Compound 432, (2S,4R)-N-[(S)-(4-cyclopropyl-3-fluorophenyl)(phenyl)methyl]-4-fluoro-1-[2-(5-methyl-1H-1,2,3,4-tetrazol-1-yl)acetyl]pyrrolidine-2-carboxamide] |
| > 100000 | 109 | Cc1nnc(CC(=O)N2C[C@H](F)C[C@H]2C(=O)N[C@@H](c2ccccc2)c2ccc(C3CC3)c(F)c2)[nH]1 [Compound 434, (2S,4R)-N-[(S)-(4-cyclopropyl-3-fluorophenyl)(phenyl)methyl]-4-fluoro-1-[2-(5-methyl-4H-1,2,4-triazol-3-yl)acetyl]pyrrolidine-2-carboxamide] |
| > 100000 | 149 | O=C(N[C@@H](c1ccccc1)c1ccc(C2CC2)c(F)c1)[C@@H]1C[C@@H](F)CN1C(=O)Cn1cccn1 [Compound 435, (2S,4R)-N-[(S)-(4-cyclopropyl-3-fluorophenyl)(phenyl)methyl]-4-fluoro-1-[2-(1H-pyrazol-1-yl)acetyl]pyrrolidine-2-carboxamide] |
| > 100000 | 173 | O=C(N[C@@H](c1ccccc1)c1ccc(C2CC2)c(F)c1)[C@@H]1C[C@@H](F)CN1C(=O)Cc1ccn[nH]1 [Compound 436, (2S,4R)-N-[(S)-(4-cyclopropyl-3-fluorophenyl)(phenyl)methyl]-4-fluoro-1-[2-(1H-pyrazol-5-yl)acetyl]pyrrolidine-2-carboxamide] |
| > 100000 | 157 | O=C(N[C@@H](c1ccccc1)c1ccc(C2CC2)c(F)c1)[C@@H]1C[C@@H](F)CN1C(=O)Cc1cn[nH]c1 [Compound 437, (2S,4R)-N-[(S)-(4-cyclopropyl-3-fluorophenyl)(phenyl)methyl]-4-fluoro-1-[2-(1H-pyrazol-4-yl)acetyl]pyrrolidine-2-carboxamide] |
| > 100000 | 51 | CN(C)C(=O)NCC(=O)N1C[C@H](F)C[C@H]1C(=O)N[C@@H](c1ccccc1)c1ccc(C2CC2)c(F)c1 [Compound 441, (2S,4R)-N-[(S)-(4-cyclopropyl-3-fluorophenyl)(phenyl)methyl]-1-{2-[(dimethylcarbamoyl)amino]acetyl}-4-fluoropyrrolidine-2-carboxamide] |
